Test results: patent US20230132667A1, “DRUG-LIKE MOLECULES AND METHODS FOR THE THERAPEUTIC TARGETING OF VIRAL RNA STRUCTURES” (UNIVERSITY OF WASHINGTON, priority 2020, published 2023)
Non-standard residues stand in square brackets, D forms with d. Agb = N=C(N)NCC[C@H](N)C(=O)O; Dab = NCC[C@H](N)C(=O)O

Columns and labels:
HIV TAR [1] = experiment: Target-detected NMR (TOCSY, 1D imino spectra; stage 3); type: binding, HIV-1; settings: chemical shift changes, TOCSY / 1D 1H imino spectra
Experimental: Stage 3. The third stage in the screening cascade involves monitoring changes in the NMR spectra of the RNA target to identity where on the target the compound binds and examine the structural characteristics of the interaction. This step is conducted in the same […] buffer used for screening, prepared either in 95% H2O/5% D2O (water buffer) or 99.99% D2O (D2O buffer) to monitor different classes of proton resonances (FIGS. 10A and 10B). Uniform labeling of bases with ^13C and ^15N can also be performed, but this is relatively expensive.
Target detect NMR assays to measure RNA-ligand interactions. Transcribed RNA sequences (at natural isotopic abundance, along with ^15N/^13C enriched or selectively labeled ^2H samples) are snap-cooled in 250-500 μL NMR buffer (50 mM d9 bis-Tris pH 6.5, 50 mM NaCl) by heating to 95° C. for 4 min then placed at −20° C. until frozen. All ligand stocks were dissolved in 10-20 mM H2O, D2O or DMSO depending on ligand solubility. […] Ligand interactions are detected by changes in chemical shift through a series of NMR experiments, including but not limited to 1D ^1H and 2D ^1H-^1H TOCSY, ^1H-^1H NOESY, ^1H-^1H EXSY, ^15N-^1H HSQC, and ^13C-^1H HSQC experiments, which are used to map the binding site of the ligand on the RNA. […]

pre-miR-21 = experiment: Single point ligand-detected NMR relaxation assay in low salt buffer (stage 1); type: binding; settings: 100 μM small molecule in low salt buffer, 10 μM RNA
From the text: (§1) For initial screening and hit identification, a relaxation edited ligand-detect method is used to detect binding under low salt conditions. These initial conditions are chosen to facilitate the discovery of even low affinity compounds with favorable chemical characteristics. Binding compounds are identified through changes in peak height when comparing spectra for RNA-free and RNA-bound ligand (FIG. 8). The change in peak height is proportional to the increase in ligand line width, compared to the free small molecule, which occurs upon binding to the larger biomolecule. This NMR method is agnostic to biomolecular target, as it only depends on the longer rotational correlation time (Tc) of the small molecule bound in a complex with a much larger biomolecular target, which has a much […] correlation time; other NMR methods (e.g., STD) can be used as well.
(§2) Stage 1. […] The free ligand linewidths of compounds dissolved at concentration of 100 μM were quantified and compared to the ligand linewidths observed after addition of 10 μM RNA target. […]
(§3) Small molecule hit identification and tiered approach to ligand-detected NMR screening. In order to identify small molecules that bind to RNA and quantify the strength of the interaction, a tiered approach to NMR screening involving both ligand- and target-detected NMR experiments was used. […]

HIV TAR [2] = experiment: as above; type: binding, HIV-1; settings: 100 μM small molecule in low salt buffer, 10 μM RNA
From the text: as §1, §2, §3

HIV TAR [3] = experiment: 2-aminopurine (2AP) fluorescence binding assay; set-up: species or system HIV-1; settings: 2AP-labeled HIV TAR, excess tRNA; single binding event; read-out: affinity by fitting Equation 1
Experimental: The fourth stage in the screening cascade quantifies binding using an orthogonal biophysical method.
To quantify binding of the compounds to HIV TAR, a 2-amino purine method was used. In this assay, U25 on HIV TAR was substituted with 2-aminopurine and binding assays were conducted on a Horiba Tau fluorometer.
2-AP binding assays. Fluorescence intensity binding assays were conducted using a method based on the incorporation of a single fluorescent base analogue (2-amino-purine, 2AP) in place of U25 for HIV TAR, and by monitoring changes in the reporter emission fluorescence intensity at 362 nm upon small molecule titration. Each experiment was collected in duplicate with 50 nM 2AP-TAR titrated with 5 mL of ligand stock solutions prepared by serial dilution. Methods were followed with 250×fold excess yeast tRNA added to the buffer as a competitor to reduce non-specific binding. Data were collected on a Horiba FL3-21tau Fluorescence Spectrophotometer, exported to Graphpad Prism v.8.1.1 and fit to Equation 1.
where Y is the measured fluorescence at 362 nm, Yi is fluorescence of the fully bound target, Yo is the fluorescence of the unbound RNA, Rt is total RNA concentration, Lt is total ligand concentration and Kd is the binding affinity.

[4] = tested on: Tat-dependent reactivation; settings: cited from earlier work

Compound	binding to HIV TAR by target-detected NMR (qualitative) (HIV TAR [1])	single point binding response to pre-miR-21 (pre-miR-21)	single point binding response to HIV TAR (HIV TAR [2])	Kd (HIV TAR [3]) [nM]	inhibition of Tat-dependent reactivation in cells [4]
CN(C)C(=O)c1cc2cnc(Nc3ccc(N4CCNCC4)cn3)nc2n1C1CCCC1 [Ribociclib]	high nM binding	binding responses	binding responses	215 ± 56	
cyclo(P(dab)VRTRKGRRI(NOR)Ip) (cyclo(P[Dab]VRTRKGRRI[Agb]I[dP])) [JB181]					only moderately inhibits
